The source of these data is PubChem BioAssay (NCI).

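In this assay, cells in 96-well plates receive the compound at five concentrations for 48 hours. Endpoints are linearly interpolated between the surrounding concentrations. Here, GI50 denotes the concentration required for 50% inhibition of growth. TGI is the concentration that stops growth completely.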

One assay relates to ACHN renal. Put plainly: NCI-60 cell line screen, 48 h.
With `COc1ccc2[nH]c3c4c(ccc3c2c1)C(=O)C=CC4=O`, the TGI turned out to be 15 µM.
Still for that read-out and setting: next, `Nc1ccn(C2(CO)C=C(CO)C(O)C2O)c(=O)n1` (stereo not given): greater than 25.8 µM; `CC1(C)O/C(=C\c2ccccc2)C(=O)/C(=C/c2ccccc2)O1`: greater than 100 µM.
Consider `[Au+].[Au+].[Au+].[c-]1nccn1Cc1ccccc1.[c-]1nccn1Cc1ccccc1.[c-]1nccn1Cc1ccccc1`, for which the GI50 is 14.3 µM and the TGI amounted to 28.6 µM.
Compound `COC(=O)CCC(=O)CC1CC(=O)C2CCCN12` (stereo not given) showed a TGI greater than 100 µM.
The same measure, in the same setting: next, `Cc1cc(NS(=O)(=O)c2ccc(Nc3c4ccccc4nc4c(C(=O)NCCN(C)C)cccc34)cc2)no1`: 19 µM; `CCOC(=N)CC(=O)Nc1cccc(C)c1C`: greater than 100 µM.

In a further assay the test system is BT-549 breast. Description: NCI-60 cell line screen, 48 h.
With `COc1ccc2[nH]c3c4c(ccc3c2c1)C(=O)C=CC4=O`, the TGI was 84.9 µM.
For the compound `[Au+].[Au+].[Au+].[c-]1nccn1Cc1ccccc1.[c-]1nccn1Cc1ccccc1.[c-]1nccn1Cc1ccccc1`, the GI50 was 5.35 µM and the TGI amounted to 42.5 µM.

A further assay deals with COLO 205 colon. Description: NCI-60 cell line screen, 48 h.
On to `COc1ccc2[nH]c3c4c(ccc3c2c1)C(=O)C=CC4=O`, for which the TGI came out at 15.6 µM.
As for `Nc1ccn(C2(CO)C=C(CO)C(O)C2O)c(=O)n1` (stereo not given), the TGI was greater than 25.8 µM.
For `CC1(C)O/C(=C\c2ccccc2)C(=O)/C(=C/c2ccccc2)O1`, the TGI was greater than 100 µM.
As for `[Au+].[Au+].[Au+].[c-]1nccn1Cc1ccccc1.[c-]1nccn1Cc1ccccc1.[c-]1nccn1Cc1ccccc1`, the GI50 is 1.74 µM and the TGI came to 3.16 µM.
With `COC(=O)CCC(=O)CC1CC(=O)C2CCCN12` (stereo not given), the TGI was greater than 100 µM.
Still for that read-out and setting: next, `Cc1cc(NS(=O)(=O)c2ccc(Nc3c4ccccc4nc4c(C(=O)NCCN(C)C)cccc34)cc2)no1`: greater than 100 µM; `CCOC(=N)CC(=O)Nc1cccc(C)c1C`: greater than 100 µM.

The test system of another assay is DMS 273 small cell lung. Description: NCI-60 cell line screen, 48 h.
`COc1ccc2[nH]c3c4c(ccc3c2c1)C(=O)C=CC4=O` returned a TGI of 32 µM.
The same measure, in the same setting: next, `Nc1ccn(C2(CO)C=C(CO)C(O)C2O)c(=O)n1` (stereo not given): greater than 25.8 µM; `CC1(C)O/C(=C\c2ccccc2)C(=O)/C(=C/c2ccccc2)O1`: greater than 100 µM.
In the case of `[Au+].[Au+].[Au+].[c-]1nccn1Cc1ccccc1.[c-]1nccn1Cc1ccccc1.[c-]1nccn1Cc1ccccc1`, the GI50 was 1.66 µM and the TGI turned out to be 3.23 µM.
`COC(=O)CCC(=O)CC1CC(=O)C2CCCN12` (stereo not given) showed a TGI greater than 100 µM.
The same measure, in the same setting: then `Cc1cc(NS(=O)(=O)c2ccc(Nc3c4ccccc4nc4c(C(=O)NCCN(C)C)cccc34)cc2)no1`, with greater than 100 µM.
The same measure, in the same setting: then `CCOC(=N)CC(=O)Nc1cccc(C)c1C`, with greater than 100 µM.

For the next assay, the system named is EKVX NSCLC. Description: NCI-60 cell line screen, 48 h.
On to `COc1ccc2[nH]c3c4c(ccc3c2c1)C(=O)C=CC4=O`, for which the TGI worked out at 29.9 µM.
Still for that read-out and setting: then `Nc1ccn(C2(CO)C=C(CO)C(O)C2O)c(=O)n1` (stereo not given), with greater than 25.8 µM; and `CC1(C)O/C(=C\c2ccccc2)C(=O)/C(=C/c2ccccc2)O1`, with greater than 100 µM.
Turning to `[Au+].[Au+].[Au+].[c-]1nccn1Cc1ccccc1.[c-]1nccn1Cc1ccccc1.[c-]1nccn1Cc1ccccc1`, the GI50 was 11.6 µM and the TGI was found to be 38.8 µM.
For the compound `COC(=O)CCC(=O)CC1CC(=O)C2CCCN12` (stereo not given), the TGI was greater than 100 µM.
In turn, `Cc1cc(NS(=O)(=O)c2ccc(Nc3c4ccccc4nc4c(C(=O)NCCN(C)C)cccc34)cc2)no1` gave a TGI of 30.1 µM.
`CCOC(=N)CC(=O)Nc1cccc(C)c1C` yielded a TGI greater than 100 µM.

In a further assay the test system is HCT-116 colon. Description: NCI-60 cell line screen, 48 h.
With `COc1ccc2[nH]c3c4c(ccc3c2c1)C(=O)C=CC4=O`, the TGI turned out to be 13.9 µM.
Compound `Nc1ccn(C2(CO)C=C(CO)C(O)C2O)c(=O)n1` (stereo not given) had a TGI greater than 25.8 µM.
The same measure, in the same setting: next, `CC1(C)O/C(=C\c2ccccc2)C(=O)/C(=C/c2ccccc2)O1`: greater than 100 µM.
Turning to `[Au+].[Au+].[Au+].[c-]1nccn1Cc1ccccc1.[c-]1nccn1Cc1ccccc1.[c-]1nccn1Cc1ccccc1`, the GI50 is 6.68 µM and the TGI is 18.6 µM.
`COC(=O)CCC(=O)CC1CC(=O)C2CCCN12` (stereo not given) displayed a TGI greater than 100 µM.
The same measure, in the same setting: then `Cc1cc(NS(=O)(=O)c2ccc(Nc3c4ccccc4nc4c(C(=O)NCCN(C)C)cccc34)cc2)no1`, with greater than 100 µM; and `CCOC(=N)CC(=O)Nc1cccc(C)c1C`, with greater than 100 µM.

A further assay deals with M19-MEL melanoma. Put plainly: NCI-60 cell line screen, 48 h.
As for `COc1ccc2[nH]c3c4c(ccc3c2c1)C(=O)C=CC4=O`, the TGI worked out at 32.7 µM.
Take `Nc1ccn(C2(CO)C=C(CO)C(O)C2O)c(=O)n1` (stereo not given): the TGI is greater than 25.8 µM.
Still for that read-out and setting: then `CC1(C)O/C(=C\c2ccccc2)C(=O)/C(=C/c2ccccc2)O1`, with greater than 100 µM.
Regarding `[Au+].[Au+].[Au+].[c-]1nccn1Cc1ccccc1.[c-]1nccn1Cc1ccccc1.[c-]1nccn1Cc1ccccc1`, the GI50 is 2.01 µM and the TGI stood at 3.96 µM.
`COC(=O)CCC(=O)CC1CC(=O)C2CCCN12` (stereo not given) had a TGI greater than 100 µM.
On the same count and under the same terms, then `Cc1cc(NS(=O)(=O)c2ccc(Nc3c4ccccc4nc4c(C(=O)NCCN(C)C)cccc34)cc2)no1`, with greater than 100 µM; and `CCOC(=N)CC(=O)Nc1cccc(C)c1C`, with greater than 100 µM.

A further assay has as its system NCI-H460 lung. Put plainly: NCI-60 cell line screen, 48 h.
Take `COc1ccc2[nH]c3c4c(ccc3c2c1)C(=O)C=CC4=O`: the TGI is 54.1 µM.
Still for that read-out and setting: next, `Nc1ccn(C2(CO)C=C(CO)C(O)C2O)c(=O)n1` (stereo not given): greater than 25.8 µM; `CC1(C)O/C(=C\c2ccccc2)C(=O)/C(=C/c2ccccc2)O1`: greater than 100 µM.
Regarding `[Au+].[Au+].[Au+].[c-]1nccn1Cc1ccccc1.[c-]1nccn1Cc1ccccc1.[c-]1nccn1Cc1ccccc1`, the GI50 was 11.6 µM and the TGI came out at 54.5 µM.
Turning to `COC(=O)CCC(=O)CC1CC(=O)C2CCCN12` (stereo not given), the TGI is greater than 100 µM.
Still for that read-out and setting: then `Cc1cc(NS(=O)(=O)c2ccc(Nc3c4ccccc4nc4c(C(=O)NCCN(C)C)cccc34)cc2)no1`, with 26.6 µM.
Same read-out and setting: then `CCOC(=N)CC(=O)Nc1cccc(C)c1C`, with greater than 100 µM.

Another assay deals with SNB-78 CNS. Description: NCI-60 cell line screen, 48 h.
Take `COc1ccc2[nH]c3c4c(ccc3c2c1)C(=O)C=CC4=O`: the TGI was determined as 37.1 µM.
In the case of `Nc1ccn(C2(CO)C=C(CO)C(O)C2O)c(=O)n1` (stereo not given), the TGI was greater than 25.8 µM.
Turning to `CC1(C)O/C(=C\c2ccccc2)C(=O)/C(=C/c2ccccc2)O1`, the TGI is greater than 100 µM.
Turning to `[Au+].[Au+].[Au+].[c-]1nccn1Cc1ccccc1.[c-]1nccn1Cc1ccccc1.[c-]1nccn1Cc1ccccc1`, the GI50 was 2.84 µM and the TGI turned out to be 8.63 µM.
As to `COC(=O)CCC(=O)CC1CC(=O)C2CCCN12` (stereo not given), the TGI was greater than 100 µM.
On the same count and under the same terms, then `Cc1cc(NS(=O)(=O)c2ccc(Nc3c4ccccc4nc4c(C(=O)NCCN(C)C)cccc34)cc2)no1`, with 80.4 µM.
On the same count and under the same terms, then `CCOC(=N)CC(=O)Nc1cccc(C)c1C`, with greater than 100 µM.

In a further assay the test system is T-47D breast. Description: NCI-60 cell line screen, 48 h.
Take `COc1ccc2[nH]c3c4c(ccc3c2c1)C(=O)C=CC4=O`: the TGI turned out to be 9.75 µM.
On to `[Au+].[Au+].[Au+].[c-]1nccn1Cc1ccccc1.[c-]1nccn1Cc1ccccc1.[c-]1nccn1Cc1ccccc1`, for which the GI50 is 7.42 µM and the TGI turned out to be 36.8 µM.
